In brackets after ≈: the same amount, converted by molar mass.
Tests used:
Assay type in all cases: functional
[1] = tested on: Mycobacterium tuberculosis; assay: Antimicrobial activity against Mycobacterium tuberculosis H37Rv ATCC 27294 harboring DprE1 C387G mutant assessed as growth inhibition after 5 days by microdilution method
[2] = tested on: Mycobacterium tuberculosis; assay: Antimicrobial activity against Mycobacterium tuberculosis H37Rv ATCC 27294 overexpressing DprE1 assessed as growth inhibition after 5 days by microdilution method; settings: H37Rv ATCC 27294, 120 h
[3] = tested on: Mycobacterium tuberculosis; assay: Antimicrobial activity against Mycobacterium tuberculosis H37Rv ATCC 27294 harboring DprE1 Y314H mutant assessed as growth inhibition after 5 days by microdilution method
[4] = tested on: Mycobacterium tuberculosis; assay: Antimicrobial activity against Mycobacterium tuberculosis H37Rv ATCC 27294 harboring DprE1 C387S mutant assessed as growth inhibition after 5 days by microdilution method

Structure (SMILES) | MIC [1] | MIC [2] | MIC [3] | MIC [4]
COc1ncnc(Cn2cc(C(=O)NCCF)c3ncccc32)c1C | 0.78 µM (≈ 0.268 µg/mL) | 50 µM (≈ 17.2 µg/mL) | >100 µM | 3.12 µM (≈ 1.07 µg/mL)
COc1ncnc(Cn2cc(C(=O)NCCF)c3ncc(C)cc32)c1C | 0.39 µM (≈ 0.139 µg/mL) | 6.25 µM (≈ 2.23 µg/mL) | >200 µM | 0.39 µM (≈ 0.139 µg/mL)
COc1ncnc(Cn2cc(C(=O)NCCO)c3ncc(C)cc32)c1C [TBA-7371] | 0.78 µM (≈ 0.277 µg/mL) | 100 µM (≈ 35.5 µg/mL) | >200 µM | 0.39 µM (≈ 0.139 µg/mL)

Source: ChEMBL document CHEMBL3108774, “Azaindoles: noncovalent DprE1 inhibitors from scaffold morphing efforts, kill Mycobacterium tuberculosis and are efficacious in vivo” (J Med Chem, 2013)
